Values quoted from earlier work as cited in paper PMC5729432, “A Phase 1 study of ARQ 087, an oral pan-FGFR inhibitor in patients with advanced solid tumours” (British Journal of Cancer, 2017).
Blank lines part the entries; values can stand above or below the compound they belong to.

Assays:
[1] = test system: patients with advanced solid tumours; design: method as in Andre et al, 2013b; Saka et al, 2017; settings: ref Andre et al, 2013b; Saka et al, 2017
[2] = test system: patients with advanced solid tumors; design: method as in Tabernero et al, 2015; settings: ref Tabernero et al, 2015
patients = test system: patients; design: method as in Nogova et al, 2017; settings: at the RP2D; ref Nogova et al, 2017

SMILES: COc1cc(CCc2cc(NC(=O)c3ccc(N4CC(C)NC(C)C4)cc3)n[nH]2)cc(OC)c1 (stereo not shown) [AZD3547]
common treatment-related AEs [1]: fatigue, mucositis, nausea, CSR, and hyperphosphataemia

dose interruptions for hyperphosphataemia [2]: 31%
dose modifications for hyperphosphataemia [2]: 8%
SMILES: COc1cc(OC)cc(N(CCNC(C)C)c2ccc3ncc(-c4cnn(C)c4)nc3c2)c1 [JNJ-42756493]
AE asthenia [2]: 55%
AE constipation [2]: 34%
AE decreased appetite [2]: 32%
AE dry mouth [2]: 45%
AE hyperphosphataemia [2]: 65%
AE nail toxicity [2]: 35%

patients requiring dose adjustments or interruptions for hyperphosphataemia (patients): 50%
SMILES: CCN1CCN(c2ccc(Nc3cc(N(C)C(=O)Nc4c(Cl)c(OC)cc(OC)c4Cl)ncn3)cc2)CC1 [BGJ398]
